Experimental findings from paper PMC12349913 (Biological & pharmaceutical bulletin, 2024) are described below.

This test has as its target full-length Plk1 (Homo sapiens, UniProt P53350). The experiment in a line: Fluorescence polarization. The note with it: FP assay, serially diluted full-length protein.

Sequence of full-length Plk1 (P53350 whole entry): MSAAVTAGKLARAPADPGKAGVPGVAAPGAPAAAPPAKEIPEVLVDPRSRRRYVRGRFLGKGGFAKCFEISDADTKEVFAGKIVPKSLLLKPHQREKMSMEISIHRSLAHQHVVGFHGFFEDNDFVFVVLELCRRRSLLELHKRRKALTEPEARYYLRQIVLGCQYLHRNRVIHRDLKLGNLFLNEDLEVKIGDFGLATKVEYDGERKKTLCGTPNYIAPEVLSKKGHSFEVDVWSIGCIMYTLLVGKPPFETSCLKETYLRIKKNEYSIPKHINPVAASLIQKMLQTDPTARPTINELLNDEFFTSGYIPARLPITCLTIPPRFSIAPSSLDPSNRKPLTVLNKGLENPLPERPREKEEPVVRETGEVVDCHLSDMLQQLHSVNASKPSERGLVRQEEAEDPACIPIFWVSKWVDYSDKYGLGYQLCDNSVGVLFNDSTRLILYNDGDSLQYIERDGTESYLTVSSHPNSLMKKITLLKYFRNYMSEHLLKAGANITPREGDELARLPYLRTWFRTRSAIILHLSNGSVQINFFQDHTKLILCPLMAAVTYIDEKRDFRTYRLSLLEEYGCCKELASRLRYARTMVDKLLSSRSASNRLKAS

Consider “5-carboxyfluorescein (5CF)-GPMQSpTPLNG-NH2 [5CF-GPMQSpTPLNG-NH2]”, for which the “FP signal response to full-length Plk1” value is “did not show significant FP signal enhancement”.
